Assay results reported in paper PMC10250618, “Synthesis, structure-activity relationships and biological evaluation of benzimidazole derived sulfonylurea analogues as a new class of antagonists of P2Y1 receptor” (Frontiers in Pharmacology, 2023).
Read-outs that look alike come from different tables or passages of the source.

Legend:
MTT assay, HEK-293 = assay type: cell-based; details: human, HEK-293 cells; at 50 µM; triplicate; read-out: HEK-293 Cell Line (%cytotoxicity ±SEM)
h-P2Y4 = target: T1, h-P2Y4 (Homo sapiens, UniProt P51582); experiment: Calcium mobilization assay, h-P2Y4 transfected 1321N1 astrocytoma cells; assay type: cell-based; details: for IC50: Ca2+ mobilization inhibition, transfected 1321N1 cells, read-out: IC50 ± SEM h-P2Y4
T1 construct: host or cells: human 1321N1 astrocytoma cells, stably transfected
Protocol: (§1) Dr. Gary A. Weisman provided human-1321N1 astrocytoma cells that had been transfected by the tP2Y1R, hP2Y2R, hP2Y4R, and rP2Y6R and untransfected 1321N1 astrocytoma cells (University of Missouri Mo., Bond Life Science Center). The DMEM Dulbecco’s Modified Eagle -Medium (Gibco) was added in flasks to cultivate the cell line. 10% of the Fetal bovine serum was also added to the media together with 500 μg/mL of Geneticin (G418) and 1% of the Pen/Strep. The cells in T-75 flask were then cultured and incubated in a CO2 incubator which was maintained at (5%) and 37°C temperature until 90% of the cells were confluent. Throughout the experiment, cells were periodically checked for the confluency and strictly watched for the microbial contamination.
(§2) The FLUOstar Galaxy (BMG LABTECH GmbH, Ortenberg, Germany) microplate reader with two injectors was used to measure the Ca^2+ fluorescence of synthetic compounds. For this assay, 1321N1 transfected cells (t-P2Y1, h-P2Y2, h-P2Y4, and r-P2Y6) were cultured in T-75 flask. When cells reached the confluency of 80%–90%, they were washed with PBS and then Trypsin was added. After trypsinization for 3 min, 20,000 cells/well were allowed to seed in a black wall and 96 well clear bottom plate which was coated with Poly-D-Lysine and allowed to incubate for 24 h in 37°C, 5% CO2 incubator. After incubation, 200 μL culture media was changed with 100 μL HBSS containing Fura-2 AM which is calcium chelating dye and allowed the plate to incubate for 45 min in dark at temp of 37°C in incubator which is maintained with carbon dioxide (5% CO2). After incubation for 45 min, synthesized molecules were added to HBSS washed cells in each well of 96 well plate and re-incubated for 30 min at 37°C. In next step, injection of the endogenous ligand such as ADP through the injector was followed by excitation and emission measurements of Fura-2 AM at 380/520 nm and 340/520. Final volume of the assay per well 200 μL. IC50 values were computed for the compounds displaying more than 50% of activity using Prism 5.0 software (Graph Pad., Inc., San Diego. California, United States) by using analysis i.e., nonlinear regression ([Kassack et al., 2002]; [Ullmann et al., 2005]).

[1] = MTT assay, non-transfected 1321N1 astrocytoma cells; assay type: cell-based, human; details: human, non-transfected 1321N1 astrocytoma cells; at 50 µM; non-transfected astrocytoma 1321N1 cells; triplicate; read-out: H-1321N1 Cell Line (%cytotoxicity ±SEM)
Protocol: A 96-well plate was used to plate 20,000 human 1321N1 astrocytoma cells and allowed for incubation for 24 h at temp of 37°C in CO2 (5%) incubator. Next to this, the prepared culture media was changed to media which was free from FBS, the test compounds were added and the incubation process was repeated. After incubation of 24 h, the serum free media from the wells was discarded, and 100 μL of the reagent i.e., MTT reagent was pipetted. Plate was then additionally incubated at 37°C for 4 h. Utilizing a microplate reader, absorbance was determined at 570 nm and 630 nm for calculation of cell viability (FLUOstarOmega Microplate Reader-BMG LABTECH GmbH, Ortenberg, Germany) ([Sauer et al., 2009]).

r-P2Y6 = target: T2, r-P2Y6 (Rattus norvegicus, UniProt Q63371); experiment: Calcium mobilization assay, r-P2Y6 transfected 1321N1 astrocytoma cells; assay type: cell-based; details: for inhibition at 100 µM: 1321-N1, final conc of 100 μM
T2 construct: host or cells: human 1321N1 astrocytoma cells, stably transfected
Protocol: as §1, §2

MTT assay, HeLa = assay type: cell-based; details: human, HeLa cells; at 50 µM; triplicate; read-out: HeLa Cell Line (%cytotoxicity ±SEM)
h-P2Y2 = target: T3, h-P2Y2 (Homo sapiens, UniProt P41231); experiment: Calcium mobilization assay, h-P2Y2 transfected 1321N1 astrocytoma cells; assay type: cell-based; details: for inhibition at 100 µM: 1321-N1, final conc of 100 μM
T3 construct: host or cells: human 1321N1 astrocytoma cells, stably transfected
Protocol: as §1, §2

t-P2Y1 = target: T4, t-P2Y1 (Meleagris gallopavo, UniProt P49652); experiment: Calcium mobilization assay, t-P2Y1 transfected 1321N1 astrocytoma cells; assay type: cell-based; details: for inhibition at 100 µM: 1321-N1, final conc of 100 μM
T4 construct: host or cells: human 1321N1 astrocytoma cells, stably transfected
Protocol: as §1, §2

[2] = Ca2+ mobilization inhibition, transfected 1321N1 cells, 100 μM of UDP, read-out: IC50 ± SEM r-P2Y6
[3] = Ca2+ mobilization inhibition, transfected 1321N1 cells, 500 μM ATP, read-out: IC50 ± SEM h-P2Y2
[4] = Ca2+ mobilization inhibition, transfected 1321N1 cells, 100 μM ADP, read-out: IC50 ± SEM t-P2Y1
[5] = 1321-N1, final conc of 100 μM, 500 μM UTP, read-out: % Inhibition h-P2Y4

T2 sequence (Q63371 whole entry): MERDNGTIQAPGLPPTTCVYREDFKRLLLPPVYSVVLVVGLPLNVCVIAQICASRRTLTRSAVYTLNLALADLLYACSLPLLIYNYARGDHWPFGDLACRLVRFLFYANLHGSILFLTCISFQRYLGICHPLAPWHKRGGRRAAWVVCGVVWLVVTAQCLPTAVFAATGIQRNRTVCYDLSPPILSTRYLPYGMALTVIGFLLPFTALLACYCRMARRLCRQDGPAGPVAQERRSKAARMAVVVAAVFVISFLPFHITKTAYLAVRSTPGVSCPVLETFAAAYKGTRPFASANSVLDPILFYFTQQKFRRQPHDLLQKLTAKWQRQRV
T1 sequence (P51582 whole entry): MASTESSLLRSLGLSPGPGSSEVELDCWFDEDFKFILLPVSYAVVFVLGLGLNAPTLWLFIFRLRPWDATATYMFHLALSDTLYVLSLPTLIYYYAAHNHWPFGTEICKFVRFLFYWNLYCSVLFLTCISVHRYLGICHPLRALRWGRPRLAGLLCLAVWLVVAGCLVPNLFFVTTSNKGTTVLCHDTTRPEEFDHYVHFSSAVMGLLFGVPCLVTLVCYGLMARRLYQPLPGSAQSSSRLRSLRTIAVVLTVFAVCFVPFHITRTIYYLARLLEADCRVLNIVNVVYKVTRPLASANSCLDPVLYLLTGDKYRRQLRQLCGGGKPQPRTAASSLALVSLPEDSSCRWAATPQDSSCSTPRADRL
T3 sequence (P41231 whole entry): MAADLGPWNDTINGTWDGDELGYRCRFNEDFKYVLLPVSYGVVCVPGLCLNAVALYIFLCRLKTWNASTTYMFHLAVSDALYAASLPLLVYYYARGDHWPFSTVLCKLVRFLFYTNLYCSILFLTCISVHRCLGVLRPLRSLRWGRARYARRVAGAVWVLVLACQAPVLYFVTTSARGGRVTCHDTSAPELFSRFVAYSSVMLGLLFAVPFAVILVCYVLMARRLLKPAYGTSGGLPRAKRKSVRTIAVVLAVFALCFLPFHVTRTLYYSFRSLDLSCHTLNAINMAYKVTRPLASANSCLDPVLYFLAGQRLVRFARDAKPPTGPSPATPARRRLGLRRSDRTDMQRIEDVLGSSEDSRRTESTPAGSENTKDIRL
T4 sequence (P49652 whole entry): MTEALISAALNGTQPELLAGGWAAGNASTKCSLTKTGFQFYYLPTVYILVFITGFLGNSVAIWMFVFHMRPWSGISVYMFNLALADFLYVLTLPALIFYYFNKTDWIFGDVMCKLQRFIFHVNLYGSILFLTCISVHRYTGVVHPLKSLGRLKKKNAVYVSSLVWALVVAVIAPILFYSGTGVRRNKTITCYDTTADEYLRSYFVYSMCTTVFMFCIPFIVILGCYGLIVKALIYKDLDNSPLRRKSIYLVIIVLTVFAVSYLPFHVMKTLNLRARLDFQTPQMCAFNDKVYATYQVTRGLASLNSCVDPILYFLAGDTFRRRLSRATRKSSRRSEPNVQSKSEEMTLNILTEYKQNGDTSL

| Structure (SMILES) | cytotoxicity at 24 h, 50 µM (MTT assay, HEK-293) [%] | IC50 (h-P2Y4; 500 μM UTP) [µM] | cytotoxicity at 24 h, 50 µM [1] [%] | IC50 (r-P2Y6; [2]) [µM] | cytotoxicity at 24 h, 50 µM (MTT assay, HeLa) [%] | IC50 (h-P2Y2; [3]) [µM] | melting point [°C] | IC50 (t-P2Y1; [4]) [µM] | inhibition at 100 µM (h-P2Y4; [5]) [%] | inhibition at 100 µM (h-P2Y2; 500 μM ATP) [%] | inhibition at 100 µM (r-P2Y6; 100 μM of UDP) [%] | inhibition at 100 µM (t-P2Y1; 100 μM ADP) [%] | inhibition at 100 µM (h-P2Y4; 1321-N1, read-out: % Inhibition h-P2Y4) [%] | IC50 (r-P2Y6) [µM] | IC50 (h-P2Y2) [µM] | IC50 (t-P2Y1) [µM] | decreased potency relatively to the derivative 1h (t-P2Y1; P2Y1) |
| --- | --- | --- | --- | --- | --- | --- | --- | --- | --- | --- | --- | --- | --- | --- | --- | --- | --- |
| Nc1nc2cc(Cl)ccc2n1C(=O)NS(=O)(=O)c1ccc([N+](=O)[O-])cc1 [1k, 2-Amino-5-chloro-N-((4-nitrophenyl)sulfonyl)-1H-benzo [d]imidazole-1-carboxamide] | 27.2 ± 0.2 | 16.6 ± 1.12 | 41.7 ± 0.2 | 8.49 ± 1.23 | 21.7 ± 0.9 | 11.1 ± 0.94 | 183 to 184 | 12.4 ± 1.03 | – | – | – | – | – | – | – | – | – |
| Nc1nc2ccccc2n1C(=O)NS(=O)(=O)c1cc(Cl)cc(Cl)c1O [1e, 2-Amino-N-((3,5-dichloro-2-hydroxyphenyl)sulfonyl)-1H-benzo [d]imidazole-1-carboxamide] | 16.3 ± 0.2 | 0.6 ± 0.01 | 39.9 ± 0.2 | 0.75 ± 0.08 | 21.3 ± 0.6 | 5.5 ± 1.21 | 115 to 117 | 0.46 ± 0.01 | – | – | – | – | – | – | – | – | – |
| COc1ccc(S(=O)(=O)NC(=O)n2c(Cl)nc3ccccc32)cc1 [1p, 2-Chloro-N-((4-methoxyphenyl)sulfonyl)-1H-benzo [d]imidazole-1-carboxamide] | 24.2 ± 0.7 | – | 21.2 ± 0.3 | 16.3 ± 0.83 | 20.5 ± 0.2 | – | 160 to 162 | 5.59 ± 0.91 | 20 | 12 | – | – | – | – | – | – | – |
| Nc1nc2cc(Cl)ccc2n1C(=O)NS(=O)(=O)c1ccc(Cl)cc1 [1i, 2-Amino-5-chloro-N-((4-chlorophenyl)sulfonyl)-1H-benzo [d]midazole-1-carboxamide] | 36.2 ± 0.1 | – | 38.7 ± 0.8 | – | 39.3 ± 0.4 | 15.7 ± 1.48 | 129 to 131 | 1.21 ± 0.07 | 34 | – | 41 | – | – | – | – | – | – |
| Cc1ccc([N+](=O)[O-])cc1S(=O)(=O)NC(=O)n1c(N)nc2ccccc21 [1g, 2-Amino-N-((2-methyl-5-nitrophenyl)sulfonyl)-1H-benzo [d]imidazole-1-carboxamide] | 14.3 ± 0.3 | – | 46.2 ± 0.2 | – | 11.6 ± 1.1 | – | 183 to 184 | 11.2 ± 0.71 | 13 | 33 | 40 | – | – | – | – | – | – |
| Nc1nc2cc([N+](=O)[O-])ccc2n1C(=O)NS(=O)(=O)c1cc(Cl)cc(Cl)c1O [1a, 2-Amino-N-((3,5-dichloro-2-hydroxyphenyl)sulfonyl)-5-nitro-1H-benzo [d]imidazole-1-carboxamide] | 13.3 ± 0.1 | – | 27.4 ± 0.5 | 0.66 ± 0.04 | 22.2 ± 1.1 | – | 107 to 110 | 0.37 ± 0.02 | 41 | 44 | – | – | – | – | – | – | – |
| Nc1nc2ccccc2n1C(=O)NS(=O)(=O)c1ccc(-c2ccccc2)cc1 [1y, N-([1.1′-biphenyl]-4-ylsulfonyl)-2-amino-1H-benzo [d]imidazole-1-carboxamide] | 39.7 ± 0.2 | – | 43.1 ± 0.8 | – | 32.6 ± 0.3 | – | 176 to 178 | – | 18 | 20 | 23 | 12 | – | – | – | – | – |
| O=C(NS(=O)(=O)c1ccc(-c2ccccc2)cc1)n1c(Cl)nc2ccccc21 [1r, N-([1.1′-biphenyl]-4-ylsulfonyl)-2-chloro-1H-benzo [d]imidazole-1-carboxamide] | 33.2 ± 0.1 | – | 31.5 ± 0.4 | – | 26.5 ± 0.5 | – | 172 to 174 | 23.44 ± 0.22 | 22 | 47 | 34 | – | – | – | – | – | – |
| Cc1ccc(S(=O)(=O)NC(=O)n2c(N)nc3cc([N+](=O)[O-])ccc32)cc1 [1b, 2-Amino-5-nitro-N-tosyl-1H-benzo [d]imidazole-1-carboxamide] | 21.3 ± 0.2 | – | 17.3 ± 0.8 | – | 21.6 ± 0.2 | – | 113 to 115 | – | 18 | 38 | 21 | 33 | – | – | – | – | – |
| Cc1ccc(S(=O)(=O)NC(=O)n2c(N)nc3ccccc32)cc1 [1w, 2-Amino-N-tosyl-1H-benzo [d]imidazole-1-carboxamide] | 27.4 ± 0.3 | – | 23.2 ± 0.3 | – | 21.3 ± 0.5 | – | 165 to 167 | – | 41 | 23 | 39 | 49 | – | – | – | – | – |
| Cc1ccc([N+](=O)[O-])cc1S(=O)(=O)NC(=O)n1c(N)nc2cc([N+](=O)[O-])ccc21 [1c, 2-Amino-N-((2-methyl-5-nitrophenyl)sulfonyl)-5-nitro-1H-benzo [d]imidazole-1-carboxamide] | 19.5 ± 0.4 | – | 21.1 ± 0.6 | – | 26.4 ± 0.7 | – | 117 to 119 | – | – | – | – | – | 42 | 16.1 ± 0.59 | 6.32 ± 1.1 | 11.11 ± 0.04 | – |
| Nc1nc2ccccc2n1C(=O)NS(=O)(=O)c1ccc(Cl)cc1 [1f, 2-Amino-N-((4-chlorophenyl)sulfonyl)-1H-benzo [d]imidazole-1-carboxamide] | 21.2 ± 0.7 | – | 23.6 ± 0.8 | 9.3 ± 1.12 | 16.4 ± 0.2 | 8.41 ± 0.07 | 110 to 112 | 0.94 ± 0.01 | 47 | – | – | – | – | – | – | – | about five |
